Experimental data: patent US20160122320A1, “USEFUL COMBINATIONS OF MONOBACTAM ANTIBIOTICS WITH BETA-LACTAMASE INHIBITORS” (Basilea Pharmaceutica AG, priority 2005, published 2016)
“And” between values parts separate entries of the source, which are not always exact repeats. Equal values may be shown once. Where a name gives a salt, the structure may show the parent alone.

How the values were obtained:
Assay in all cases: MIC, NCCLS broth microdilution
Format in all cases: cell-based
[1] = test system: Pseudomonas aeruginosa 1973E; conditions: for MIC of antibiotic at fixed inhibitor concentration (4 mg/L): MIC of antibiotic compound 1 with the labelled bridged monobactam of formula II and clavulanate, 4 mg/L each
Protocol: Antimicrobial activity of the compounds and of their combinations was determined against a selection of organisms according to the standard procedures described by the National Committee for Clinical Laboratory Standards (National Committee for Clinical Laboratory. Standards (2000). Methods for Dilution Antimicrobial Susceptibility Tests for Bacteria That Grow Aerobically-Fifth Edition: Approved Standard M7-A5. NCCLS, Wayne, Pa., USA).
In all cases the final concentration of DMSO incubated with the bacteria is less than or equal to 1%. […] Plates were incubated overnight at an appropriate temperature (30° C. or 37° C.) and optical densities assessed by eye. The MIC value is defined as the lowest compound concentration completely inhibiting visible growth of the test organism. When combinations between compounds of formula I with compounds of formula II and are evaluated the compounds of formula I are tested in dilution series as described above while the compounds of formula II and III-XIII were present in all wells at a constant concentration of 4 μg/mL each.

[2] = test system: Klebsiella pneumoniae CF104; conditions: for MIC of antibiotic at fixed inhibitor concentration (4 mg/L): MIC of antibiotic compound 1 with the labelled bridged monobactam of formula II and clavulanate, 4 mg/L each
[3] = test system: Pseudomonas aeruginosa MK1184; conditions: for MIC of antibiotic at fixed inhibitor concentration (4 mg/L): MIC of antibiotic compound 1 with the labelled bridged monobactam of formula II and clavulanate, 4 mg/L each
Enterobacter cloacae P99 = conditions: for MIC of antibiotic at fixed inhibitor concentration (4 mg/L): MIC of antibiotic compound 1 with the labelled bridged monobactam of formula II and clavulanate, 4 mg/L each
Acinetobacter sp. J2 = conditions: for MIC of antibiotic at fixed inhibitor concentration (4 mg/L): MIC of antibiotic compound 1 with the labelled bridged monobactam of formula II and clavulanate, 4 mg/L each; for MIC of antibiotic: antibiotic alone, no inhibitor
[4] = test system: Stenotrophomonas malthophilia 1AC736; conditions: for MIC of antibiotic at fixed inhibitor concentration (4 mg/L): MIC of antibiotic compound 1 with the labelled bridged monobactam of formula II and clavulanate, 4 mg/L each; for MIC of antibiotic: antibiotic alone, no inhibitor
Serratia marcescens S6 = conditions: for MIC of antibiotic at fixed inhibitor concentration (4 mg/L): MIC of antibiotic compound 1 with the labelled bridged monobactam of formula II and clavulanate, 4 mg/L each
[5] = Stenotrophomonas malthophilia 1AC736

SMILES | MIC of antibiotic at fixed inhibitor concentration (4 mg/L) [1] | MIC of antibiotic at fixed inhibitor concentration (4 mg/L) [2] | MIC of antibiotic at fixed inhibitor concentration (4 mg/L) [3] | MIC of antibiotic at fixed inhibitor concentration (4 mg/L) (Enterobacter cloacae P99) | MIC of antibiotic at fixed inhibitor concentration (4 mg/L) (Acinetobacter sp. J2; Acinetobacter sp. J2) | MIC of antibiotic at fixed inhibitor concentration (4 mg/L) [4, 5] | MIC of antibiotic at fixed inhibitor concentration (4 mg/L) (Serratia marcescens S6) | MIC of antibiotic ([1]; antibiotic alone, no inhibitor) | MIC of antibiotic ([2]; antibiotic alone, no inhibitor) | MIC of antibiotic ([3]; antibiotic alone, no inhibitor) | MIC of antibiotic (Enterobacter cloacae P99; antibiotic alone, no inhibitor) | MIC of antibiotic (Acinetobacter sp. J2; Acinetobacter baumannii J2) | MIC of antibiotic (Acinetobacter sp. J2; Acinetobacter sp. J2) | MIC of antibiotic [4, 5] | MIC of antibiotic ([4]; Stenotrophomonas maltophilia 1AC736) | MIC of antibiotic (Serratia marcescens S6; antibiotic alone, no inhibitor)
Cc1cc[n+](CC(=O)N2CC[C@@H]3[C@H]2C(=O)N3S(=O)(=O)[O-])cc1C [Compound 121, (1S,5R)-2-[2-(3,4-dimethylpyridinium)acetyl]-7-oxo-2,6-diazabicyclo[3.2.0]heptane-6-sulfonate, inner salt] | 4 µg/mL | 0.25 µg/mL | 16 µg/mL | 32 µg/mL | >32 µg/mL | 0.25 µg/mL | 0.25 µg/mL | – | – | – | – | – | – | – | – | –
COc1ccc(NC(=O)N2CC[C@@H]3[C@H]2C(=O)N3S(=O)(=O)[O-])cc1.[Na+] [Compound 304] | 4 µg/mL | 1 µg/mL | >32 µg/mL | 32 µg/mL | >32 µg/mL | 0.125 µg/mL | 0.25 µg/mL | – | – | – | – | – | – | – | – | –
CO/N=C(\C(=O)N[C@@H]1C(=O)N2C(C(=O)[O-])=C(C[N+]3(C)CCCC3)CS[C@H]12)c1csc(N)n1 [Cefepime] | – | – | – | – | – | – | – | 4 µg/mL | 4 µg/mL | 32 µg/mL | 2 µg/mL | 32 µg/mL | 32 µg/mL | 4 µg/mL | 4 µg/mL | 0.13 µg/mL and 0.125 µg/mL
NC(=O)c1cc[n+](CC(=O)N2CC[C@@H]3[C@H]2C(=O)N3S(=O)(=O)[O-])cc1 [Compound 105, (1S,5R)-2-[2-(4-carbamoylpyridinium)acetyl]-7-oxo-2,6-diazabicyclo[3.2.0]heptane-6-sulfonate, inner salt] | 8 µg/mL | 0.5 µg/mL | 16 µg/mL | 32 µg/mL | 8 µg/mL | 0.125 µg/mL | 0.125 µg/mL | – | – | – | – | – | – | – | – | –
O=C(C[n+]1cccc(-c2ccccc2)c1)N1CC[C@@H]2[C@H]1C(=O)N2S(=O)(=O)[O-] [Compound 124, (1S,5R)-7-oxo-2-[2-(3-phenylpyridinium)acetyl]-2,6-diazabicyclo[3.2.0]heptane-6-sulfonate, inner salt] | 8 µg/mL | 0.125 µg/mL | 32 µg/mL | 32 µg/mL | >32 µg/mL | 0.125 µg/mL | 0.25 µg/mL | – | – | – | – | – | – | – | – | –
O=C(Nc1ccc2[nH]c(=O)[nH]c2c1)N1CC[C@@H]2[C@H]1C(=O)N2S(=O)(=O)[O-].[Na+] [Compound 319, Sodium(1S,5R)-7-oxo-2-[N-(2-oxo(3-hydrobenzimidazol-5-yl))carbamoyl]-2,6-diazabicyclo[3.2.0]heptane-6-sulfonate] | 4 µg/mL | 0.25 µg/mL | >32 µg/mL | 16 µg/mL | >32 µg/mL | 0.125 µg/mL | 0.25 µg/mL | – | – | – | – | – | – | – | – | –
